The CheMixHub viscosity set
± gives the uncertainty stated by the source.

Experiment: xn = mol fraction of the nth substance listed

Cc1ccc(O)cc1 + C1CCCCC1
viscosity [mPa·s]
Conditions | 101 kPa | 101.33 kPa
303.15 K, x2 = 0.1014 | 7.352 ± 0.11 | 7.352 ± 0.2
303.15 K, x2 = 0.1683 | 5.44 ± 0.081 | 5.44 ± 0.14
303.15 K, x2 = 0.3021 | 4.004 ± 0.06 | 4.004 ± 0.11
303.15 K, x2 = 0.3949 | 2.988 ± 0.045 | 2.988 ± 0.078
303.15 K, x2 = 0.5007 | 2.25 ± 0.034 | 2.25 ± 0.059
303.15 K, x2 = 0.6007 | 1.732 ± 0.026 | 1.732 ± 0.045
303.15 K, x2 = 0.7004 | 1.35 ± 0.02 | 1.35 ± 0.035
303.15 K, x2 = 0.7973 | 1.11 ± 0.017 | 1.1 ± 0.029
303.15 K, x2 = 0.8999 | 0.909 ± 0.014 | 0.909 ± 0.024
308.15 K, x1 = 0.0725 | 0.8571 ± 0.007 | –
308.15 K, x1 = 0.2007 | 1.086 ± 0.0087 | –
308.15 K, x1 = 0.3167 | 1.393 ± 0.011 | –
308.15 K, x1 = 0.3977 | 1.673 ± 0.013 | –
308.15 K, x1 = 0.5218 | 2.252 ± 0.017 | –
308.15 K, x1 = 0.6527 | 3.175 ± 0.024 | –
308.15 K, x1 = 0.7637 | 4.421 ± 0.033 | –
308.15 K, x1 = 0.8681 | 6.119 ± 0.043 | –
308.15 K, x1 = 0.9441 | 7.786 ± 0.053 | –

Cc1cccc(C)c1 + C1CCCCC1
101 kPa
Conditions | viscosity [mPa·s]
303 K, x1 = 0.1017 | 0.7217 ± 0.0051
303 K, x1 = 0.2009 | 0.6601 ± 0.0048
303 K, x1 = 0.3085 | 0.6191 ± 0.0046
303 K, x1 = 0.4005 | 0.5943 ± 0.0045
303 K, x1 = 0.503 | 0.5759 ± 0.0045
303 K, x1 = 0.5848 | 0.5648 ± 0.0044
303 K, x1 = 0.7009 | 0.552 ± 0.0044
303 K, x1 = 0.8041 | 0.5484 ± 0.0045
303 K, x1 = 0.9025 | 0.5445 ± 0.0045
308.15 K, x2 = 0.0628 | 0.516 ± 0.0094
308.15 K, x2 = 0.1619 | 0.5217 ± 0.0094
308.15 K, x2 = 0.2398 | 0.522 ± 0.0095
308.15 K, x2 = 0.3421 | 0.5304 ± 0.0096
308.15 K, x2 = 0.4497 | 0.5417 ± 0.0097
308.15 K, x2 = 0.5501 | 0.5626 ± 0.01
308.15 K, x2 = 0.6692 | 0.587 ± 0.01
308.15 K, x2 = 0.7673 | 0.6144 ± 0.011
308.15 K, x2 = 0.8649 | 0.6595 ± 0.011
308.15 K, x2 = 0.9489 | 0.7148 ± 0.012
313 K, x1 = 0.1017 | 0.6251 ± 0.0045
313 K, x1 = 0.2009 | 0.5799 ± 0.0043
313 K, x1 = 0.3085 | 0.548 ± 0.0041
313 K, x1 = 0.4005 | 0.5296 ± 0.0041
313 K, x1 = 0.503 | 0.5178 ± 0.0041
313 K, x1 = 0.5848 | 0.508 ± 0.0041
313 K, x1 = 0.7009 | 0.5009 ± 0.0041
313 K, x1 = 0.8041 | 0.493 ± 0.0041
313 K, x1 = 0.9025 | 0.492 ± 0.0042
313.15 K, x2 = 0.0628 | 0.4892 ± 0.009
313.15 K, x2 = 0.1619 | 0.4949 ± 0.0091
313.15 K, x2 = 0.2398 | 0.4963 ± 0.0091
313.15 K, x2 = 0.3421 | 0.5022 ± 0.0092
313.15 K, x2 = 0.4497 | 0.5152 ± 0.0093
313.15 K, x2 = 0.5501 | 0.5304 ± 0.0096
313.15 K, x2 = 0.6692 | 0.5548 ± 0.0099
313.15 K, x2 = 0.7673 | 0.5837 ± 0.01
313.15 K, x2 = 0.8649 | 0.6213 ± 0.011
313.15 K, x2 = 0.9489 | 0.6685 ± 0.011
323 K, x1 = 0.1017 | 0.5481 ± 0.004
323 K, x1 = 0.2009 | 0.5125 ± 0.0039
323 K, x1 = 0.3085 | 0.4884 ± 0.0038
323 K, x1 = 0.4005 | 0.4736 ± 0.0037
323 K, x1 = 0.503 | 0.4625 ± 0.0037
323 K, x1 = 0.5848 | 0.4562 ± 0.0037
323 K, x1 = 0.7009 | 0.45 ± 0.0037
323 K, x1 = 0.8041 | 0.4466 ± 0.0038
323 K, x1 = 0.9025 | 0.4461 ± 0.0038

O=S(=O)(Cl)Cl + C1CCCCC1
298.15 K, 101 kPa
Conditions | viscosity [mPa·s]
x1 = 0.321 | 0.7303
x1 = 0.647 | 0.677
x1 = 0.797 | 0.6695

O=S1(=O)CCCC1 + C1CCOC1
viscosity [mPa·s], 101 kPa
Conditions | 303.15 K | 308.15 K | 313.15 K | 318.15 K | 323.15 K
x2 = 0.268 | 3.74 ± 0.39 | 2.9 ± 0.29 | 3.41 ± 0.34 | 2.93 ± 0.29 | 2.68 ± 0.27
x2 = 0.541 | 1.53 ± 0.15 | 1.46 ± 0.15 | 1.34 ± 0.13 | 1.26 ± 0.13 | 1.18 ± 0.12
x2 = 0.772 | 0.77 ± 0.08 | 0.74 ± 0.07 | 0.72 ± 0.07 | 0.7 ± 0.07 | 0.68 ± 0.07

Cc1ccc(O)cc1 + C1COCCO1
viscosity [mPa·s], 101 kPa
Conditions | 303.15 K | 308.15 K | 313.15 K | 318.15 K
x1 = 0.0835 | 1.335 ± 0.01 | 1.184 ± 0.0093 | 1.097 ± 0.0087 | 0.9967 ± 0.0079
x1 = 0.1701 | 1.476 ± 0.011 | 1.319 ± 0.01 | 1.201 ± 0.0094 | 1.106 ± 0.0087
x1 = 0.26 | 1.752 ± 0.013 | 1.563 ± 0.012 | 1.422 ± 0.011 | 1.289 ± 0.01
x1 = 0.3534 | 2.165 ± 0.017 | 1.887 ± 0.015 | 1.71 ± 0.013 | 1.542 ± 0.012
x1 = 0.4504 | 2.798 ± 0.021 | 2.473 ± 0.019 | 2.175 ± 0.017 | 1.964 ± 0.015
x1 = 0.5515 | 3.65 ± 0.028 | 3.108 ± 0.024 | 2.733 ± 0.021 | 2.409 ± 0.019
x1 = 0.6567 | 4.783 ± 0.036 | 4.09 ± 0.031 | 3.524 ± 0.026 | –
x1 = 0.7663 | 6.413 ± 0.046 | 5.276 ± 0.039 | 4.492 ± 0.033 | 3.804 ± 0.028
x1 = 0.8807 | 8.261 ± 0.058 | 5.704 ± 0.042 | 5.704 ± 0.041 | 4.834 ± 0.036
x2 = 0.1 | – | 6.901 ± 0.082 | – | –
x2 = 0.2 | – | 5.697 ± 0.069 | – | –
x2 = 0.3 | – | 4.498 ± 0.055 | – | –
x2 = 0.4 | – | 3.461 ± 0.043 | – | –
x2 = 0.5 | – | 2.724 ± 0.034 | – | –
x2 = 0.6 | – | 2.14 ± 0.027 | – | –
x2 = 0.7 | – | 1.705 ± 0.021 | – | –
x2 = 0.8 | – | 1.401 ± 0.018 | – | –
x2 = 0.9 | – | 1.142 ± 0.015 | – | –

Cc1cccc(C)c1 + C1COCCO1
Conditions | viscosity [mPa·s]
298.15 K, 101 kPa, x2 = 0.7182 | 1.005 ± 0.021

NCCCO + C1COCCO1
viscosity [mPa·s], 101 kPa
Conditions | x1 = 0.1197 | x1 = 0.2269 | x1 = 0.3332 | x1 = 0.4339 | x1 = 0.5403 | x1 = 0.6385 | x1 = 0.7328 | x1 = 0.8244 | x1 = 0.9072
298.15 K | 1.419 ± 0.026 | 1.847 ± 0.033 | 2.619 ± 0.047 | 3.465 ± 0.062 | 4.883 ± 0.088 | 6.97 ± 0.12 | 10.21 ± 0.18 | 15 ± 0.27 | 20.98 ± 0.37
303.15 K | 1.294 ± 0.023 | 1.654 ± 0.03 | 2.311 ± 0.042 | 3.05 ± 0.055 | 4.251 ± 0.076 | 5.966 ± 0.11 | 8.411 ± 0.15 | 12.14 ± 0.22 | 16.7 ± 0.3
308.15 K | 1.188 ± 0.022 | 1.488 ± 0.027 | 2.037 ± 0.037 | 2.674 ± 0.048 | 3.624 ± 0.065 | 4.916 ± 0.088 | 6.868 ± 0.12 | 9.516 ± 0.17 | 13.47 ± 0.24

O=S1(=O)CCCC1 + C1COCCO1
viscosity [mPa·s], 101 kPa
Conditions | x1 = 0.0809 | x1 = 0.1742 | x1 = 0.2786 | x1 = 0.3855 | x1 = 0.4739 | x1 = 0.5744 | x1 = 0.6247 | x1 = 0.7169 | x1 = 0.8462 | x1 = 0.9062
303.15 K | 1.276 ± 0.012 | 1.517 ± 0.015 | 1.854 ± 0.018 | 2.293 ± 0.022 | 2.756 ± 0.027 | 3.428 ± 0.033 | 3.841 ± 0.037 | 4.786 ± 0.047 | 6.656 ± 0.063 | 7.852 ± 0.073
313.15 K | 1.086 ± 0.011 | 1.284 ± 0.013 | 1.558 ± 0.015 | 1.912 ± 0.018 | 2.28 ± 0.022 | 2.809 ± 0.027 | 3.13 ± 0.03 | 3.861 ± 0.037 | 5.275 ± 0.051 | 6.164 ± 0.059
323.15 K | 0.9369 ± 0.0093 | 1.104 ± 0.011 | 1.332 ± 0.013 | 1.622 ± 0.016 | 1.922 ± 0.019 | 2.348 ± 0.023 | 2.605 ± 0.025 | 3.182 ± 0.03 | 4.278 ± 0.041 | 4.942 ± 0.048

O=S1(=O)CCCC1 + C1COCO1
viscosity [mPa·s], 101 kPa
Conditions | 303.15 K | 308.15 K | 313.15 K | 318.15 K | 323.15 K
x1 = 0.207 | 0.89 ± 0.09 | 0.85 ± 0.09 | 0.82 ± 0.08 | 0.78 ± 0.08 | 0.75 ± 0.08
x1 = 0.43 | 1.49 ± 0.15 | 1.39 ± 0.14 | 1.24 ± 0.13 | 1.21 ± 0.12 | 1.17 ± 0.12
x1 = 0.658 | 3.04 ± 0.31 | 2.53 ± 0.26 | 2.32 ± 0.24 | 2.12 ± 0.22 | 1.99 ± 0.2
